Data reported in patent US11097034B2, “Compositions and methods of modulating endochondral ossification and bone formation” (CASE WESTERN RESERVE UNIVERISTY, priority 2016, dated 2021).

Assays:
[1] = system: unstable tibia fractures; experiment: Carbachol injection into tibia fracture callus, μCT; type: in vivo, mouse; settings: injected into callus during cartilaginous phase; vs DMEM controls; trend
Description: All procedures were performed on adult male wild type (C57BL/6) mice. We created unstable tibia fractures through three point bending and surgically resected nerves proximal to the fracture (either the sciatic nerve, femoral nerve, or both) and compared them to mice who received sham procedures. We injected Carbachol (Cch), a synthetic acetylcholine analogue, into the callus during the cartilaginous phase of healing and compared them to controls that were injected with Dulbecco's Modified Eagle's medium (DMEM) alone. Bone mineral density (BMD) and bone volume were quantified using micro-computed tomography (μCT) analysis. Following μCT the tibiae were processed for histology and stained using the Hall Brunt Quadruple stain (HBQ). The tissue composition was quantified using stereology on an Olympus Cast system.

[2] = system: bone fracture; experiment: Temporal delivery of NGF to bone fracture site; type: in vivo, mice; settings: NGF delivery 7-9 days post-fracture compared with 4-6 days
From the text: FIGS. 24(A-B) illustrate plots showing the temporal therapeutic delivery of NGF to improve bone fracture healing in mice. (A) Timeline of experimental delivery of NGF to bone fracture site for two different post-fracture time ranges. (B) NGF expression decreases over time post-fracture.

Compound	bone mineral density (BMD), μCT [1]	activation of selected bone healing markers [2]
C[N+](C)(C)CCOC(N)=O [Cch, Carbachol]	higher BMD than controls	–
NGF: nerve growth factor	–	more robust activation of selected bone healing markers
